Laboratory results reported in PMC4527730, “A Pan-GTPase Inhibitor as a Molecular Probe” (PLoS ONE, 2015).

How the values were obtained:
[1] = test system: EGFR degradation regulated by Rab GTPases, SCC-12F cells; experiment: EGFR degradation in SCC-12F cells; assay type: cell-based; details: EGF 20 nM, 0-120 min, versus DMSO
Protocol: SCC-12F cells were seeded in 12-well plates at 0.12 x 10^6 cells/well and allowed to attach overnight. On the day of the experiment, the cells were starved in serum free medium containing 25 μg/mL cycloheximide for 2 h before compounds at different concentrations were added. The cells were treated with compound or DMSO for 0.5 h followed by the addition of ligand EGF at 20 nM. At time 0, 15, 30, 60, and 120 min, the suspension medium was removed and the cells were quickly washed with cold PBS and frozen at -80°C. For electrophoresis and blotting, CellLyticM Cell Lysis buffer containing protease inhibitor cocktails was added to the frozen cells and the protein concentrations were quantified using the Bradford assay. For SDS-PAGE, 10 μg of protein was loaded on each lane. After transblotting, the nitrocellulose membrane was probed with Anti-EGFR and Anti-actin primary antibody and secondary goat anti-rabbit IgG antibody with conjugated peroxidase. Actin served as a loading control. After adding the substrate SuperSignal West Dura, specific band signal was detected with ChemiDoc XRS+ molecular imager and the intensity was quantified using Image Lab software. Experiments were carried out either in duplicate and repeated or in triplicate. Results are given as the ratios of EGFR/actin at time t and EGFR/actin at time 0.

[2] = test system: EGFR degradation, HeLa cells overexpressing Rab7 wild type; experiment: EGFR degradation in Rab7 overexpressing HeLa cells; assay type: cell-based; details: HeLa cells overexpressing Rab7, 100 μM, 3 h, 0-180 min
Protocol: The EGFR degradation assay in HeLa cells was carried out in a similar way to that in SCC-12F cells but with modifications. […] Cell lysates were prepared at various time points and immunoblotted for total EGFR while actin served as a loading control. Experiments were carried out in triplicate.

[3] = test system: H358 cells; experiment: CellTiter-Glo viability assay; assay type: cell-based; details: 48 h, compared with U937 FPRΔST control cells
Protocol: (§1) Cells were plated in a 96-well plate at 2000 cells per well and allowed to incubate overnight. Compound 1 or the same volume of DMSO was added on the second day. Viability was examined after 48 h. Data were collected from at least triplicate samples. Results were reported as viability treated/viability untreated (DMSO control). To evaluate apoptosis, the PE Annexin V Apoptosis Kit I was used. In 6-well plates, H358 cells were seeded at 50% confluence, while U937 FPRΔST cells were at 0.02 x 10^6 /mL. After overnight incubation, the cells were treated with compound 1 or DMSO. At 24 h or 48 h, cells were washed with PBS, and resuspended in 100 uL annexin-V binding buffer. After staining with annexin-V-FITC and 7-AAD, cells were analyzed on an Accuri C6 flow cytometer. At least 7,000 cells were measured per individual sample. The annexin^+AAD^- cells are defined as cells undergoing apoptosis. Data were collected from duplicate samples and the experiments were repeated. Results are given as the ratios of the apoptotic populations between the compound-treated and the DMSO-treated cells.

[4] = test system: H358 cells; experiment: PE Annexin V apoptosis assay; assay type: cell-based; details: 24 h or 48 h
Protocol: as §1

[5] = test system: U937 FPRΔST cells; experiment: PE Annexin V apoptosis assay; assay type: cell-based; details: 24 h or 48 h
Protocol: as §1

[6] = test system: SCC-12F cells; experiment: Cytotoxicity (CellTiter-Glo); assay type: cell-based; details: up to 100 µM; 24 h and 3 h
Protocol: (§2) S3 Fig. Cytotoxicity of 1 and analogues. […]
(§3) µM over the experimental time frame. Compounds tested in the U937ΔST cells for 24 h (A) and (B), and for 1 h (C). Compounds tested in SCC-12F cells for 24 h (D) and (E), and for 3 h (F-I). Data are reported as ratios of luminescence to that of the DMSO treated control.
(§4) (1 picture or pasted object on this page, not shown here)
(§5) FITC-LDV dissociation assay
(§6) The dissociation kinetics of FITC-LDV was measured by flow cytometry following the addition of 100-fold excess of non-fluorescent LDV. (The kinetic constants obtained are the same within experimental error whether adding 100-fold or 200-fold excess non-fluorescent LDV). The fluorescence decrease was recorded (see B in S2 Fig.). For the resting state, when a fluorescence plateau was reached after the addition of LDV-FITC, LDV was added to the cell suspension. For the high affinity state, when the fluorescence reached equilibrium after the sequential addition of LDV-FITC and N-formyl peptide, LDV was added. To study the effect of a compound, LDV was added at the time point when the fluorescence approached a […]. The fluorescence decrease curve was fitted to Equation 2 to obtain the dissociation rate constant koff. […] Therefore the binding affinity can also be estimated by comparing the measured koff. […]

[7] = test system: U937 FPRΔST cells; experiment: Cytotoxicity (CellTiter-Glo); assay type: cell-based; details: up to 100 µM; 24 h and 1 h
Protocol: as §2, §3, §4, §5, §6

[8] = target: Cdc42 (Homo sapiens, UniProt P60953); experiment: GTPase and effector interaction assay (PAK-PBD beads), HeLa cell lysates; details: HeLa cells, 10 μM, 2 h, EGF 10 ng/mL 2 min
Protocol: GST effector chimeras consisting of the minimal GTPase binding domain were p21-activated kinase p21 binding domain (PAK-PBD) for Cdc42, Raf1 Ras-binding domain (Raf1-RBD) for Ras, and Rab-interacting lysosomal protein (RILP) for Rab7 binding measurements.
Superdex peptide beads (13 μm, from GE Healthcare) derivatized with GSH were coated with effector proteins to saturation. […] The effector-coated glutathione beads (20,000 beads/assay) were incubated with 200 μL cell lysate from a single treated well for 1 h at 4°C. […] The bead associated fluorescence representing bound GTPase was quantified on an Accuri C6 flow cytometer.

[9] = target: RhoA (Homo sapiens, UniProt P61586); experiment: Multiplex bead-based flow cytometry dose-response of fluorescent guanine nucleotide binding; details: EC50 RhoA
Chain of RhoA (P61586 whole entry): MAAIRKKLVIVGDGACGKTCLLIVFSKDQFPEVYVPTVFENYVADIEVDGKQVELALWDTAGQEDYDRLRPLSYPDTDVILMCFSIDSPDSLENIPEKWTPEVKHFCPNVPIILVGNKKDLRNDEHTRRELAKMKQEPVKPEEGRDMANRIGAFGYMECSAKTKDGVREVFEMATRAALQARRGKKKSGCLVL
Protocol: Briefly, individual GST-GTPases were separately attached to glutathione microsphere beads that were labeled with varying intensity of red fluorescent dye, and subsequently combined. The buffer contains 30 mM HEPES (pH 7.2), 150 mM KCl, 20 mM NaCl, 0.1% BSA, 1 mM DTT, 1 mM EDTA and 0.1% NP-40. For Rho A and Rac1, 1 mM EDTA was replaced with 1 mM MgCl2 to stabilize the protein. […] To study whether the compounds are slow binders, BODIPY^- FL GTP was added either immediately or 2 h after compound addition. […] The curves were fitted to the sigmoidal dose-response equation using GraphPad Prism. Percent response was calculated as the ratio of (sample MCF–negative control MCF) / (positive control MCF–negative control MCF).

Chain of Cdc42 (P60953 whole entry): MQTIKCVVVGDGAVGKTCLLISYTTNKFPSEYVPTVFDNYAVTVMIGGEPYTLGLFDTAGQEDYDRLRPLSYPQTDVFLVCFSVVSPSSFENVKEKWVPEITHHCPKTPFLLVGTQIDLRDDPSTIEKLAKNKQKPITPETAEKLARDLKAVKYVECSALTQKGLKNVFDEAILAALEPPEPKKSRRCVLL

CC1(C)Cc2c(sc(NC(=S)NC(=O)c3ccccc3)c2C(=O)O)CO1 [Compound 1]
EGFR degradation [1]: delayed EGFR degradation | EGFR degradation [2]: delayed EGFR degradation | viability [3]: decreased the viability of H358 cells more than the U937 FPRΔST cells | apoptosis [4]: time-dependent apoptosis increase | apoptosis increase [5]: absent | toxicity [6]: did not show toxicity | toxicity [7]: did not show toxicity | level of active Cdc42 after EGF stimulation [8]: below the basal levels | EC50 ([9]; BODIPY-FL GTP binding, 2 h at 4°C, 1 mM MgCl2): 62 ± 49 nM | EC50 ([9]; concentration dependence on BODIPY-FL GDP): 100 nM
